Results reported in PubChem BioAssay (NCI).
“And” between values parts separate entries of the source, which are not always exact repeats. Identical values can stand only once.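 Results reflect a 48-hour exposure of cells in 96-well plates to compound at five concentrations. The concentration for 50% growth inhibition is given as GI50. At the TGI there is no net growth.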

Tests used:
Assay in all cases: NCI anticancer screen, dose series, 48 h
786-0 renal = tested on: 786-0 renal
EKVX NSCLC = tested on: EKVX NSCLC
HT29 colon = tested on: HT29 colon
IGROV1 ovarian = tested on: IGROV1 ovarian
K-562 leukemia = tested on: K-562 leukemia
MALME-3M melanoma = tested on: MALME-3M melanoma
OVCAR-5 ovarian = tested on: OVCAR-5 ovarian
SN12C renal = tested on: SN12C renal
UACC-62 melanoma = tested on: UACC-62 melanoma
SR leukemia = tested on: SR leukemia

SMILES	TGI (786-0 renal)	TGI (EKVX NSCLC)	TGI (HT29 colon)	TGI (IGROV1 ovarian)	TGI (K-562 leukemia)	TGI (MALME-3M melanoma)	TGI (OVCAR-5 ovarian)	TGI (SN12C renal)	TGI (UACC-62 melanoma)	TGI (SR leukemia)	GI50 (786-0 renal)	GI50 (K-562 leukemia)	GI50 (MALME-3M melanoma)	GI50 (OVCAR-5 ovarian)	GI50 (SN12C renal)	GI50 (SR leukemia)	GI50 (EKVX NSCLC)	GI50 (HT29 colon)	GI50 (IGROV1 ovarian)	GI50 (UACC-62 melanoma)
N#CCc1nc2c(s1)C(=O)c1ccccc1C2=O	30.1 µM	49.1 µM	46.5 µM	17.3 µM	39.6 µM	34.3 µM	37.2 µM	33.5 µM	26.5 µM											
C/C(=N\N=C(N)N)c1sc(-c2nc(C)c(/C(C)=N/N=C(N)N)s2)nc1C	> 68.5 µM	> 100 µM	> 100 µM	> 100 µM	> 100 µM	> 100 µM	> 100 µM	> 100 µM	> 100 µM	> 66.4 µM										
NC(=O)c1ccc(NC(=O)c2oc3ccccc3c2-c2cnn(-c3ccccc3)c2)cc1	> 85.2 µM				> 100 µM	> 100 µM	> 100 µM	> 100 µM		> 100 µM	5.41 µM	> 100 µM	> 100 µM	> 100 µM	> 100 µM	> 100 µM				
NC(=O)Cn1c(=O)[nH]c(=O)c2[nH]cnc21	> 100 µM	> 100 µM	> 100 µM	> 100 µM	> 100 µM	> 100 µM	> 100 µM	> 100 µM	> 100 µM	> 100 µM										
O=C(O)c1c(Cl)c(Cl)c(Cl)c(Cl)c1-c1c2cc(I)c(=O)c(I)c-2oc2c(I)c(O)c(I)cc12	123 µM	> 200 µM	154 µM	83.8 µM	116 µM		163 µM	103 µM	41.3 µM and 68.6 µM	87.6 µM	46.5 µM	39.2 µM and 46 µM		41.9 µM	75.5 µM and 32.6 µM	39.1 µM and 31.6 µM	63.5 µM	52.6 µM	88.2 µM and 34.9 µM	18.6 µM and 31.6 µM
CC1=C[C@H]2C[C@@]3(C)O[C@@H]([C@]4(C)CC[C@H]([C@@H](C)C(=O)O)OO4)CC3C(C)(C)[C@H]2CC1 (stereo partly specified)	4.99 µM	3.67 µM	1.77 µM			2.22 µM	4.67 µM	2.79 µM												
COC(=N)/C(=C1\OC(N)=C(c2ccc(Cl)cc2)C1=O)c1ccc(Cl)cc1	> 100 µM	> 100 µM	> 100 µM	> 100 µM	> 100 µM	> 100 µM	> 100 µM	> 100 µM	> 100 µM	> 100 µM										
O=C1CCCC2COc3ccc(O)c1c32 (stereo unspecified)	> 100 µM	> 100 µM	> 100 µM	> 100 µM	> 100 µM	> 100 µM	> 100 µM	> 100 µM	> 100 µM	> 100 µM										
Cc1ccc(C)c2sc3cc(=O)ccc-3nc12	> 100 µM	> 100 µM	> 100 µM	> 100 µM	79.6 µM		74.1 µM	> 100 µM	33.6 µM	> 100 µM										
O=C(NNc1ccc([N+](=O)[O-])cc1)C1OC(CO)C(O)C1O (stereo unspecified)	> 100 µM	> 100 µM	> 100 µM	> 100 µM	> 100 µM	> 100 µM	> 100 µM	> 100 µM	> 100 µM											
Clc1cccc(C2SCc3nc4ccccc4n32)c1Cl (stereo unspecified)	32.8 µM	30.8 µM	27.5 µM	33.6 µM	45 µM		27.1 µM	32.5 µM	34.3 µM											
